Assay results published in patent US7412284B2, “Apparatus for electroporation mediated delivery for drugs and genes” (Genetronics, Inc., priority 1997, dated 2008).

Experiments:
[1] = tested on: Cutaneous and Subcutaneous Cancer; test: Clinical studies using bleomycin sulfate and EPT, cutaneous and subcutaneous cancer; type: in vivo, humans
Head and Neck Cancer = test: Clinical study of EPT with intralesional bleomycin for head and neck cancers; type: in vivo, humans; set-up: key to Response Status: Complete Response (CR): Disappearance of all evidence of tumor as determined by physical examination, and/or biopsy.; Partial Response (PR): 50% or greater reduction in tumor volume.; No Response (NR): less than 50% reduction in tumor volume
Protocol: All of the following patients were treated with bleomycin intratumoral injection and needle arrays of different diameters with six needles. The voltage was set to achieve a nominal electric field strength of 1300 V/cm (the needle array diameter was multiplied by 1300 to give the voltage the generator was set at). The pulse length was 100 μs.
The study was designed as a single center feasibility clinical study in which the efficacy of the EPT procedure in combination with intralesional bleomycin was compared to that for traditional surgery, radiation, and/or systemic chemotherapy. Approximately 50 study subjects were enrolled in the study. All study subjects were assessed prior to treatment by examination and biopsy. Postoperative assessment of study subjects was weekly for 4-6 weeks, and monthly thereafter for a total of 12 months. Approximately 8 to 12 weeks following therapy, a biopsy of the tumor site was performed. Use of CT or MRI scans was utilized in accordance to standard medical follow-up evaluation of HNC subjects.
Tumor evaluation includes measuring the tumor diameter (in centimeters) and estimating its volume (in cubic centimeters). Prior to intratumoral administration of bleomycin sulfate, the tumor site is anesthetized with 1% lidocaine (xylocaine) and 1:100,000 epinephrine. The concentration of bleomycin sulfate injected is 4 units per milliliter, up to a maximum dose of 5 units per tumor. If more than one tumor per subject is treated, a total of 20 units per subject should not be exceeded. The dose of bleomycin administered is to be 1 unit/cm^3 of calculated tumor volume. Approximately ten minutes subsequent to the injection of bleomycin sulfate, the applicator is placed on the tumor and electrical pulses initiated. Each application or an initiation of electrical pulses is referred to as a sequence. The use of EPT is not a contraindication to any subsequent palliative treatment required by the subject.
In this study, success was defined as significant tumor regression in a period of 16 weeks or less without major side effects seen with traditional therapy. There are three possible response outcomes:
Complete Response (CR): Disappearance of all evidence of tumor as determined by physical examination, and/or biopsy. • Partial Response (PR): 50% or greater reduction in tumor volume. • No Response (NR): less than 50% reduction in tumor volume.
If the tumor increases (25% tumor volume) in size, other therapy, if indicated, was instituted per subject's desire.

Panc-3 = test: EPT of Panc-3 with neocarcinostatin, pre- and post-pulse injection; type: in vivo, nude mice
Text: The Panc-3 and NSCLC models were utilized with the drug neocarcinostatin (NCS) following the same procedures as outlined above. […] It was believed that due to the low isoelectric point of NCS, electrostatic interaction prevented the drug from entering the tumor cell. Therefore, the experiment was repeated by pulsing first and injecting NCS post-pulse.

[2] = enrollment start 01/20/95, Basal Cell, 18 patients, 54 lesions, IT 0.5 to 3 Units
[3] = enrollment start 01/20/95, Kaposi Sarcoma, 1 patient, 4 lesions, IT 1 to 2 Units
[4] = enrollment start 01/20/95, Met. Melanoma, 10 patients, 84 lesions, IT 0.2 to 2 Units
[5] = enrollment start 01/20/95, Squamous Cell, 1 patient, 1 lesion, IT 1.5 Units
[6] = enrollment start 01/20/95, Summary, 30 patients, 146 lesions
[7] = enrollment start 02/18/94, Basal Cell, 2 patients, 6 lesions, IV 22 to 23 Units
[8] = enrollment start 02/18/94, Met. Breast Adenocarcinoma, 1 patient, 2 lesions, IV 17 Units
[9] = enrollment start 02/18/94, Met. Melanoma, 3 patients, 10 lesions, IV 19 to 23 Units
[10] = enrollment start 08/01/96, Basal Cell, 7 patients, 8 lesions, IT 0.8 to 0.64 Units
[11] = enrollment start 08/01/96, Summary, 7 patients, 8 lesions
[12] = Adenocarcinoma, 2 patients, 2 lesions, IT 2 to 8 Units
[13] = Squamous Cell, 7 patients, 7 lesions, IT 1 to 16 Units

## bleomycin sulfate
[1]; [2]
  Tumor Response CR %: 94%
  Tumor Response NR %: 0%
  Tumor Response PR %: 9%
[1]; [3]
  Tumor Response CR %: 100%
  Tumor Response NR %: 0%
  Tumor Response PR %: 0%
[1]; [4]
  Tumor Response CR %: 91%
  Tumor Response NR %: 2%
  Tumor Response PR %: 9%
[1]; [5]
  Tumor Response CR %: 0%
  Tumor Response NR %: 0%
  Tumor Response PR %: 100%
[1]; [6]
  Tumor Response CR %: 89%
  Tumor Response NR %: 1%
  Tumor Response PR %: 10%
[1]; [7]
  Tumor Response CR %: 17%
  Tumor Response NR %: 0%
  Tumor Response PR %: 83%
[1]; [8]
  Tumor Response CR %: 100%
  Tumor Response NR %: 0%
  Tumor Response PR %: 0%
[1]; [9]
  Tumor Response CR %: 30%
  Tumor Response NR %: 50%
  Tumor Response PR %: 20%
[1]; [10]
  Tumor Response CR %: 67%
  Tumor Response NR %: 0%
  Tumor Response PR %: 33%
[1]; [11]
  Tumor Response CR %: 67%
  Tumor Response NR %: 0%
  Tumor Response PR %: 33%
Head and Neck Cancer; [12]
  Tumor Response CR %: 0%
  Tumor Response NR %: 100%
  Tumor Response PR %: 100%
Head and Neck Cancer; [13]
  Tumor Response CR %: 43%
  Tumor Response NR %: 29%
  Tumor Response PR %: 29%
Head and Neck Cancer; Subject 1/J-S, first response (week 2)
  Response Status: PR (Partial Response (PR): 50% or greater reduction in tumor volume.)
Head and Neck Cancer; Subject 1/J-S, second response (week 8)
  Response Status: CR
Head and Neck Cancer; Subject 1/J-S, to CR
  Time to Response (Week): 8 Week
Head and Neck Cancer; Subject 1/J-S, to PR
  Time to Response (Week): 2 Week
Head and Neck Cancer; Subject 2/G-C
  Response Status: PR (Partial Response (PR): 50% or greater reduction in tumor volume.)
  Time to Response (Week): 4 Week
Head and Neck Cancer; Subject 3/L-O
  Response Status: CR
  Time to Response (Week): 3 Week
Head and Neck Cancer; Subject 4/G-R, first response (week 4)
  Response Status: PR (Partial Response (PR): 50% or greater reduction in tumor volume.)
Head and Neck Cancer; Subject 4/G-R, second response (week 9)
  Response Status: CR
Head and Neck Cancer; Subject 4/G-R, to CR
  Time to Response (Week): 9 Week
Head and Neck Cancer; Subject 4/G-R, to PR
  Time to Response (Week): 4 Week
Head and Neck Cancer; Subject 5/R-H, segmented treatment
  Response Status: NR** (No Response (NR): less than 50% reduction in tumor volume.)
Head and Neck Cancer; Subject 6/C-B
  Response Status: PR (Partial Response (PR): 50% or greater reduction in tumor volume.)
  Time to Response (Week): 2 Week
Head and Neck Cancer; Subject 7/C-J, segmented treatment
  Response Status: NR** (No Response (NR): less than 50% reduction in tumor volume.)
Head and Neck Cancer; Subject 8/L-J
  Response Status: PR (Partial Response (PR): 50% or greater reduction in tumor volume.)
  Time to Response (Week): 4 Week
Head and Neck Cancer; Subject 9/J-T
  Time to Response (Week): 7 Week
Head and Neck Cancer; Subject 9/J-T, segmented treatment
  Response Status: PR** (Partial Response (PR): 50% or greater reduction in tumor volume.)
Head and Neck Cancer; Subject No. 1, 3 and 4, of 9 subjects
  subjects with a complete response: Three
Head and Neck Cancer; Subject No. 2, 6, 8 and 9, of 9 subjects
  subjects with a partial response: four
Head and Neck Cancer; Subject No. 5 and 7, of 9 subjects
  subjects with no response: two
Head and Neck Cancer; Summary, 9 patients, 9 lesions
  Tumor Response CR %: 33%
  Tumor Response NR %: 22%
  Tumor Response PR %: 44%
Head and Neck Cancer; due to progressive disease or complications unrelated to study treatment (Subject No. 2, 5 and 7)
  subjects who died prior to reaching week 12: Three

B1: neocarcinostatin (protein, UniProt P0A3R9 35-147, looked up)
Neocarzinostatin: AAPTATVTPSSGLSDGTVVKVAGAGLQAGTAYDVGQCAWVDTGVLACNPADFSSVTADANGSASTSLTVRRSFEGFLFDGTRWGTVDCTTAACQVGLSDAAGNGPEGVAISFN
Panc-3; comparison of FIGS. 11a and 11b
  post-pulse versus pre-pulse administration: more effective than pre-pulse administration
Panc-3; post-pulse injection, day 13, mice ID 1, 2, 4 and 7 of 7, appeared to be due to edema
  final vs initial tumor volume: an increase in tumor volume was observed
Panc-3; post-pulse injection, day 23, separate group of 5 mice
  tumor volume: all mice showed a marked reduction in tumor volume
Panc-3; pre-pulse dosing
  reduction of tumor size: not effective in reducing tumor size at all
